Assay [1] has as its target T1, 1,3-beta-glucan synthase (Candida tropicalis, UniProt B6S6L8, S80P). The experiment in a line: Inhibition of Candida tropicalis T19 blood stream isolate glucan synthase subunit FKS1p with FLTLS/PLRDP mutant at monophasic kinetics.
In assay [2] the target is T1, 1,3-beta-glucan synthase. Briefly: Inhibition of Candida tropicalis T3 blood stream isolate glucan synthase subunit FKS1p with FLTLS/PLRDP mutant at monophasic kinetics.
For assay [3], the target named is T1, 1,3-beta-glucan synthase. Briefly: Inhibition of Candida tropicalis T3 blood stream isolate glucan synthase subunit FKS1p with FLTLS/PLRDP mutant at biphasic kinetics.
The target in assay [4] is T2, 1,3-beta-D-glucan synthase catalytic subunit (Candida albicans, UniProt O13383).
T2 sequence (O13383 whole entry): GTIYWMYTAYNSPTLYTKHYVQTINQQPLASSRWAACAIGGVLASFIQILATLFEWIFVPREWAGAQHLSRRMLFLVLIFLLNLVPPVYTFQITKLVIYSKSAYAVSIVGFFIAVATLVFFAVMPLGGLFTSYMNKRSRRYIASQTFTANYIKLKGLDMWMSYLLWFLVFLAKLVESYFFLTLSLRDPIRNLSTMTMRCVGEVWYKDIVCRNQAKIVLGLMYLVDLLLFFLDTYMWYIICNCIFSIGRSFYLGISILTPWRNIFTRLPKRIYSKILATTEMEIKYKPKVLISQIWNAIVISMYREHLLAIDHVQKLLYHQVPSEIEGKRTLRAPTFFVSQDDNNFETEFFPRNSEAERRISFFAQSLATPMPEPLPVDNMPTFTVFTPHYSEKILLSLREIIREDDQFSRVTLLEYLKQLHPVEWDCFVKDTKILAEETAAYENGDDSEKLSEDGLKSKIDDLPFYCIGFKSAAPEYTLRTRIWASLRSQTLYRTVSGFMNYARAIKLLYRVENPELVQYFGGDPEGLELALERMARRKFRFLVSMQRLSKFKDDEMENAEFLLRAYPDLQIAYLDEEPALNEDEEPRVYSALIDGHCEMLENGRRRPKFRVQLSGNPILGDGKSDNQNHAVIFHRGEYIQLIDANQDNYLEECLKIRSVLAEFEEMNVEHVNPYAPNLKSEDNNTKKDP
The experiment in a line: Inhibition of Candida albicans ATCC 90028 glucan synthase at monophasic kinetics.

In assay [5] the target is 1,3-beta-glucan synthase (Candida tropicalis, UniProt B6S6L8, F76L). Briefly: Inhibition of Candida tropicalis T26 blood stream isolate glucan synthase subunit FKS1p with LLTLSLRDP mutant at monophasic kinetics.
Assay [6] deals with T1, 1,3-beta-glucan synthase. The experiment in a line: Inhibition of Candida tropicalis T19 blood stream isolate glucan synthase subunit FKS1p with FLTLS/PLRDP mutant at biphasic kinetics.

SMILES strings stand for the structures.

T1 sequence (B6S6L8 entry or part of it, stated change not applied): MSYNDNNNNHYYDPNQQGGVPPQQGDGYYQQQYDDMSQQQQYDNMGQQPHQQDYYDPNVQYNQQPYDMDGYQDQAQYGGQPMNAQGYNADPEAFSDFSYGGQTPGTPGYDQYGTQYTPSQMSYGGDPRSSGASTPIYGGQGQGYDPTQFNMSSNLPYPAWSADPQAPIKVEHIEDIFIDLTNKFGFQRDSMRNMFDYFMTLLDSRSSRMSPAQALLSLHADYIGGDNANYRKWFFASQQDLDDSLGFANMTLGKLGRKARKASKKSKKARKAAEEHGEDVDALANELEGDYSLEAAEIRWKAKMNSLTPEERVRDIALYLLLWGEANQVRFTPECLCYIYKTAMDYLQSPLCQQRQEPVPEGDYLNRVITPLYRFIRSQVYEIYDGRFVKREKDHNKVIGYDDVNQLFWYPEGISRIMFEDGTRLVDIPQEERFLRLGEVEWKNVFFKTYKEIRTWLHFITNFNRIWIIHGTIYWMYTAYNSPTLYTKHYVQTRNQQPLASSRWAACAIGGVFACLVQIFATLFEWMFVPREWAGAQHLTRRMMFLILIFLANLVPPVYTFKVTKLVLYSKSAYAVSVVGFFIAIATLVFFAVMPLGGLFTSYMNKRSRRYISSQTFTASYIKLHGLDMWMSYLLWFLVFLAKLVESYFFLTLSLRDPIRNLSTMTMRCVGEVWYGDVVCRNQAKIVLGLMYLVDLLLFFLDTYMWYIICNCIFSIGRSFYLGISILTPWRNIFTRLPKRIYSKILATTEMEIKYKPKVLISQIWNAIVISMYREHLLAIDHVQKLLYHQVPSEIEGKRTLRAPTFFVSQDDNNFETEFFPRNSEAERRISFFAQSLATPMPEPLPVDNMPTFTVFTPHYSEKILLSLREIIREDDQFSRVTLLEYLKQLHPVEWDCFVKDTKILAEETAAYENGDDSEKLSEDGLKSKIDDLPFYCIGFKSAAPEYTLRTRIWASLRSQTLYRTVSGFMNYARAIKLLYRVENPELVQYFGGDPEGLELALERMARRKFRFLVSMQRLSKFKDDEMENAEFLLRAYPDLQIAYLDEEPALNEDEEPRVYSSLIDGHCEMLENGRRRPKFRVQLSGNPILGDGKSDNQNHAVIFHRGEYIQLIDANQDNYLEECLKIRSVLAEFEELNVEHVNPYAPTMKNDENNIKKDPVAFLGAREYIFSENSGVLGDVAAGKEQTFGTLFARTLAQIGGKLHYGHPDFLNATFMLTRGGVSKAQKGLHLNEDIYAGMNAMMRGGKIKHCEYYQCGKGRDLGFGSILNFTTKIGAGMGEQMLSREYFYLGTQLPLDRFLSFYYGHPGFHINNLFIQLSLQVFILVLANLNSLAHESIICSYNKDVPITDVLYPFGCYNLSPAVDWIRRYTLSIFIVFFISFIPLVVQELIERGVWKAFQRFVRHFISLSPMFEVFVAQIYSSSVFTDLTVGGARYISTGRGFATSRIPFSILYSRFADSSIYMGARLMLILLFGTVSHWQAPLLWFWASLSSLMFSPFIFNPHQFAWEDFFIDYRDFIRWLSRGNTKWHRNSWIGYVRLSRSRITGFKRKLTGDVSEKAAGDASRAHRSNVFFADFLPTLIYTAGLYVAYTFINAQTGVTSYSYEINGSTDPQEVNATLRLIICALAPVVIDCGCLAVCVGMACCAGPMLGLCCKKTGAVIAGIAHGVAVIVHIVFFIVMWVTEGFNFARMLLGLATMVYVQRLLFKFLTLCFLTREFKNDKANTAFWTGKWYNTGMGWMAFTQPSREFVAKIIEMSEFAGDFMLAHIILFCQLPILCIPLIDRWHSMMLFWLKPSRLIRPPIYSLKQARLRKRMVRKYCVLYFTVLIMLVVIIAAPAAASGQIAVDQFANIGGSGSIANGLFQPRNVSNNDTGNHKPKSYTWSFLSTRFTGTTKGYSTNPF
1,3-beta-glucan synthase (Candida tropicalis, UniProt B6S6L8, F76L), sequence (B6S6L8 entry or part of it, stated change not applied): as above

With `CCC(C)CC(C)CCCCCCCCC(=O)N[C@H]1C[C@@H](O)[C@@H](NCCN)NC(=O)[C@@H]2[C@@H](O)CCN2C(=O)[C@H]([C@H](O)CCN)NC(=O)[C@H]([C@H](O)[C@@H](O)c2ccc(O)cc2)NC(=O)[C@@H]2C[C@@H](O)CN2C(=O)[C@H]([C@@H](C)O)NC1=O` (stereo partly specified) [CHEBI:474180], the IC50 was determined as 0.296 nM at 1,3-beta-glucan synthase [1]; 0.306 nM on 1,3-beta-glucan synthase [2]; 370 nM at 1,3-beta-glucan synthase [3]; 0.5 nM in assay [4]; 77 nM against 1,3-beta-glucan synthase [5]; 264 nM on 1,3-beta-glucan synthase [6].

Broadly, the IC50 is the concentration that inhibits the measured activity by half. Higher therefore signals lower potency.

Values taken from BindingDB's records for doi:10.1128/AAC.00802-08 (University of Medicine and Dentistry of New Jersey, 2008).
